Patent US20220098646A1, “DETECTION METHOD OF PAN-RESISTANT K. PNEUMONIAE, SCREENING METHOD OF ANTIMICROBIAL AGENTS, AND RECORDING MEDIA AND DATABASE” (TEIKYO UNIVERSITY, priority 2019, published 2022)
Values after ≈ are worked out from the molar mass of the structure shown.

tested on: K. pneumoniae TK1401; test: Antimicrobial susceptibility testing, MicroScan WalkAway apparatus; assay type: cell-based, Klebsiella pneumoniae; settings: K. pneumoniae isolate TK1401; MicroScan WalkAway; CLSI M100-S24 breakpoints
Experimental: (§1) Testing was performed using a MicroScan WalkAway apparatus (Beckman Coulter, Brea, Calif., USA). The minimal inhibitory concentration (MIC) of colistin was confirmed using the Etest (bioMérieux, Marcy l'Etoile, France) and the broth microdilution method. Antimicrobial susceptibility was defined according to breakpoints listed in the Clinical and Laboratory Standards Institute (CLSI) guidelines (M100-S24).

| Compound | Minimum inhibitory concentration |
| --- | --- |
| CO[C@@]1(NC(=O)CSCC#N)C(=O)N2C(C(=O)O)=C(CSc3nnnn3C)CS[C@@H]21 [Cefmerazole] | >32 µg/mL |
| CO/N=C(\C(=O)N[C@@H]1C(=O)N2C(C(=O)O)=C(COC(C)=O)CS[C@H]12)c1csc(N)n1 [Cefotaxim] | >2 µg/mL |
| Gentamicin | >8 µg/mL |

same assay, conditions: Klebsiella pneumoniae; K. pneumoniae isolate TK1401; MicroScan WalkAway; CLSI M100-S24 breakpoints; read-out: Minimum inhibitory concentration

| Compound | MIC |
| --- | --- |
| CC1(C)S[C@@H]2[C@H](NC(=O)[C@H](N)c3ccc(O)cc3)C(=O)N2[C@H]1C(=O)O [Amoxicillin] | > 16 µg/mL |
| COCC1=C(C(=O)O)N2C(=O)[C@@H](NC(=O)/C(=N\OC)c3csc(N)n3)[C@H]2SC1 [Cefpodoxime] | > 4 µg/mL |
| Cc1nnc(SCC2=C(C(=O)O)N3C(=O)[C@@H](NC(=O)Cn4cnnn4)[C@H]3SC2)s1 [Cefazolin] | > 16 µg/mL |
| C=CC1=C(C(=O)O)N2C(=O)[C@@H](NC(=O)/C(=N\O)c3csc(N)n3)[C@H]2SC1 [Cefdinir] | > 2 µg/mL |
| NCC[C@H](O)C(=O)N[C@@H]1C[C@H](N)[C@@H](O[C@H]2O[C@H](CN)[C@@H](O)[C@H](O)[C@H]2O)[C@H](O)[C@H]1O[C@H]1O[C@H](CO)[C@@H](O)[C@H](N)[C@H]1O [Amikacin] | > 32 µg/mL |
| CC1(C)S[C@@H]2[C@H](NC(=O)[C@H](N)c3ccccc3)C(=O)N2[C@H]1C(=O)O [Ampicillin] | > 16 µg/mL |
| CCN1CCN(C(=O)N[C@@H](C(=O)N[C@@H]2C(=O)N3[C@@H]2SC(C)(C)[C@@H]3C(=O)O)c2ccccc2)C(=O)C1=O [Piperacillin] | > 64 µg/mL |
| CO/N=C(\C(=O)N[C@@H]1C(=O)N2C(C(=O)[O-])=C(C[N+]3(C)CCCC3)CS[C@H]12)c1csc(N)n1 [Cefepime] | > 2 µg/mL |
| C[C@H]1COc2c(N3CCN(C)CC3)c(F)cc3c(=O)c(C(=O)O)cn1c23 [Levofloxacin] | > 4 µg/mL |
| C[C@@H](O)[C@H]1C(=O)N2C(C(=O)O)=C(S[C@@H]3CN[C@H](CNS(N)(=O)=O)C3)[C@H](C)[C@H]12 [Doripenem] | > 8 µg/mL |
| CO/N=C(\C(=O)N[C@@H]1C(=O)N2C(C(=O)O)=C(CSc3nc(=O)c(=O)[nH]n3C)CS[C@H]12)c1csc(N)n1 [Ceftriaxone] | > 16 µg/mL |
| N[C@@H](C(=O)N[C@@H]1C(=O)N2C(C(=O)O)=C(Cl)CS[C@H]12)c1ccccc1 [Cefaclor] | > 16 µg/mL |
| CO/N=C(\C(=O)N[C@@H]1C(=O)N2C(C(=O)[O-])=C(C[n+]3ccn4ncccc43)CS[C@H]12)c1nsc(N)n1 [Cefozopran] | > 16 µg/mL |
| CC(C)(O/N=C(\C(=O)N[C@@H]1C(=O)N2C(C(=O)[O-])=C(C[n+]3ccccc3)CS[C@H]12)c1csc(N)n1)C(=O)O [Ceftazidime] | > 16 µg/mL |
| NC[C@H]1O[C@H](O[C@H]2[C@H](O)[C@@H](O[C@H]3O[C@H](CO)[C@@H](O)[C@H](N)[C@H]3O)[C@H](N)C[C@@H]2N)[C@H](N)C[C@@H]1O [Tobramycin] | > 8 µg/mL |
| C[C@@H](O)[C@H]1C(=O)N2C(C(=O)O)=C(S[C@@H]3CN[C@H](C(=O)N(C)C)C3)[C@H](C)[C@H]12 [Meropenem] | > 8 µg/mL |
| CN(C)CCn1nnnc1SCC1=C(C(=O)O)N2C(=O)[C@@H](NC(=O)Cc3csc(N)n3)[C@H]2SC1 [Cefotiam] | > 16 µg/mL |
| CO[C@@]1(NC(=O)CSC(F)F)C(=O)N2C(C(=O)O)=C(CSc3nnnn3CCO)CO[C@@H]21 [Flomoxef] | > 32 µg/mL |
| C[C@@H](O)[C@H]1C(=O)N2C(C(=O)O)=C(SCCN=CN)C[C@H]12 [Imipenem] | > 8 µg/mL |

same assay, conditions: breakpoints of CLSI guidelines M100-S24

| Compound | Antimicrobial susceptibility of the isolate (in words) |
| --- | --- |
| C[C@@H]1O[C@@H]1P(=O)(O)O [Fosfomycin] | not susceptible |

tested on: K. pneumoniae TK1401; test: Antimicrobial susceptibility testing, broth microdilution method; assay type: cell-based, Klebsiella pneumoniae; settings: K. pneumoniae isolate TK1401; broth microdilution method (footnote b)
Experimental: as §1

| Compound | Minimum inhibitory concentration |
| --- | --- |
| Polymyxin B | 64 µg/mL |
| Colistin | 64 µg/mL |

same assay, conditions: Klebsiella pneumoniae, TK1401, read-out: Minimum inhibitory concentration

| Compound | MIC |
| --- | --- |
| CN(C)c1cc(NC(=O)CNC(C)(C)C)c(O)c2c1C[C@H]1C[C@H]3[C@H](N(C)C)C(O)=C(C(N)=O)C(=O)[C@@]3(O)C(O)=C1C2=O [Tigecycline] | 16 µg/mL (≈ 27.3 µM) |

same assay, conditions: Klebsiella pneumoniae; K. pneumoniae isolate TK1401; broth microdilution method (footnote b); read-out: Minimum inhibitory concentration

| Compound | MIC |
| --- | --- |
| O=C(N[C@H](CO)[C@H](O)c1ccc([N+](=O)[O-])cc1)C(Cl)Cl [Chloramphenicol] | > 256 µg/mL |
| NCC[C@H](O)C(=O)N[C@@H]1C[C@H](N)[C@@H](O[C@H]2O[C@H](CN)CC[C@H]2N)[C@H](O)[C@H]1O[C@H]1O[C@H](CO)[C@@H](O)[C@H](N)[C@H]1O [Arbekacin] | > 256 µg/mL |
| CN(C)c1ccc(O)c2c1C[C@H]1C[C@H]3[C@H](N(C)C)C(O)=C(C(N)=O)C(=O)[C@@]3(O)C(O)=C1C2=O [Minocycline] | 256 µg/mL (≈ 560 µM) |
| C[C@@H]1O[C@@H]1P(=O)(O)O [Fosfomycin] | > 256 µg/mL |
